Experimental data reported in patent publication US5491135A (priority 1993, dated 1996).
In brackets after ≈: the same amount, converted by molar mass. Several values for one entry are separate records, joined by “and”; a condition that tells them apart may be missing. Equal entries are not always repeated. Entries after “also recorded” stand apart in the source; their conditions may differ.

How the values were obtained:
[1] = test system: L-aspartic acid transcarbamylase (ATCase); conditions: cited from earlier work
herpes virus-2 = assay: In vitro antiviral assay; assay type: cell-based
Vaccinia virus = assay: microbe, parasite or virus in culture; assay type: cell-based, vaccinia virus (Lederle vaccine); conditions: Vero
Yellow fever virus = conditions: Vero
[2] = test system: Venezuelan equine encephalitis virus; conditions: Vero; 50% inhibition
in vitro = conditions: human, cem cells
Vero cells = conditions: uninfected
HCMV strain AD 169 = assay: Rabbit model of HCMV chorioretinitis (Example 5); assay type: in vivo, pigmented rabbit; conditions: for histology: preliminary
Description: A total of 32 pigmented rabbits were used in this study. Animals were evaluated by slit lamp and indirect ophthalmoscopy to determine normal ocular morphology and lack of preexisting pathology. Animals were handled as follows:
[1] On day 0, all rabbits were inoculated by mid-vitreal injection of 10^5 PFU HCMV strain AD 169 in 100 μl.
[2] Animals were maintained in individual cages and developing chorioretinal HCMV disease was monitored daily. On day 2 PI, HCMV-inoculated animals were divided into 8 groups of 4 rabbits each with matched chorioretinal disease scores. The HCMV-infected rabbits received intravenous therapy as indicated below:
Group #1--4 animals, intravenous injection of high dose experimental drug (50 mg/kg) daily from day 2 through 10 PI. A total of 9 IV injections.
Group #3--4 animals, intravenous injection of low dose experimental drug (20 mg/kg) daily from day 2 through 10 PI. A total of 9 IV injections.
Group #4--4 animals, intravenous injection of high dose experimental drug (50 mg/kg) daily from day 2 through 10 PI (a total of 9 IV injections) plus high dose DHPG 10 mg/kg/day in 2 divided doses from day 2 through 10 PI (a total of 18 IV injections).
Group #5--4 animals, intravenous injection of high dose experimental drug (50 mg/kg) daily from day 2 through 10 PI (a total of 9 IV injections) plus low dose DHPG 5 mg/kg/day in 2 divided doses from day 2 through 10 PI (a total of 18 IV injections).
Group #6--4 animals, intravenous injection of low dose experimental drug (20 mg/kg) daily from day 2 through 10 PI (a total of 9 IV injections) plus low dose DHPG 5 mg/kg/day in 2 divided doses from day 2 through 10 PI (a total of 18 IV injections).
Group #7--4 animals, intravenous injection of DHPG 10 mg/kg/day in 2 divided doses from day 2 through day 10 PI. A total of 18 IV injections.
Group #8--4 animals, intravenous injection of sterile saline on days 2 through 10 PI.
[3] All animals received daily indirect ophthalmoscopic examinations to evaluate clinical HCMV disease progression (From days 2 through 10 PI). The indirect ophthalmoscopic examinations were performed independently by two readers who were masked as to the therapy that the rabbits were receiving.
[4] All animals were sacrificed on day 12 PI. Chorioretina and iris tissues and vitreous samples will be removed and processed for HCMV recovery by cell sonicate assay on Hs68 cell monolayers. Selected ocular and lung tissue samples were processed for histochemistry to evaluate HCMV-induced ocular pathology in treated and non-treated groups.
The clinical, virus recovery and histological efficacy results for all drug-treated intravenous therapy groups were correlated with each other and with the placebo therapy group.

[3] = Cytotoxicity in Hep-2 cells; conditions: human
[4] = Cytotoxicity in human foreskin fibroblasts; conditions: hff cells
Paramyxo-3 = assay: In vitro antiviral assay; assay type: cell-based
[5] = PALA 50 mg/kg every other day i.v.
[6] = PALA 20 daily, alone or + DHPG 5 mg/kg i.v.
[7] = PALA 50 daily, DHPG 10/day, or PALA 50 + DHPG 10 or 5 mg/kg i.v.

O=C(O)C[C@H](NC(=O)CP(=O)(O)O)C(=O)O [PALA]
Ka, avidity relative to carbamyl phosphate [1]: 1000 ×
inhibitory activity (herpes virus-2): no inhibitory activity
IC50 (Vaccinia virus; Orthopoxvirus vaccinia): 10 µg/mL (≈ 39.2 µM)
TI (Vaccinia virus): 32.0
IC50 (Yellow fever virus): 13.4 µg/mL (≈ 52.5 µM)
TI (TC50/IC50) (Yellow fever virus; 50% inhibition): > 19.22 and > 23.82
TI(95) (Yellow fever virus; 95% inhibition): > 10.68 and > 10.38
TI (TC50/IC50) [2]: 0.00
CC50 (in vitro): 60 µg/mL (≈ 235 µM)
TC50 (Vero cells): > 320 µg/mL
histology (HCMV strain AD 169; PALA 20 mg/kg daily i.v.): diffuse disease with moderate to severe chorioretinal disease
histology (HCMV strain AD 169; PALA 50 mg/kg daily i.v.): moderate areas of chorioretinal HCMV disease restricted to the inner retina
HCMV recovery day 12 PI (HCMV strain AD 169; [5]): No HCMV was recovered
clinical efficacy (HCMV strain AD 169; [5]): marginally effective
lung appearance at sacrifice (HCMV strain AD 169; [5]): clear and non congested
optic nerve head edema and redness (HCMV strain AD 169; [5]): severe on days 3-4 PI
vitreitis severity (HCMV strain AD 169; [5]): moderate to severe levels within 3-4 days post inoculation
HCMV recovery day 12 PI (HCMV strain AD 169; [6]): No HCMV was recovered
clinical efficacy (HCMV strain AD 169; [6]): not effective
HCMV recovery day 12 PI (HCMV strain AD 169; [7]): No HCMV was recovered
clinical efficacy (HCMV strain AD 169; [7]): only marginally effective; also recorded: not effective
lung appearance at sacrifice (HCMV strain AD 169; [7]): clear and non congested
vitreitis severity (HCMV strain AD 169; [7]): moderate levels within 3-4 days post inoculation
interstitial pneumonitis (HCMV strain AD 169; rabbit, in vivo): prevented interstitial pneumonitis
CC50 [3]: > 320 µg/mL
CC50 [4]: > 320 µg/mL
IC50 (Paramyxo-3; HEp-2): 10 µg/mL (≈ 39.2 µM)
TI (Paramyxo-3; Hep-2): 32.0

Nc1nc(O)c2ncn(COC(CO)CO)c2n1 [DHPG, reference compound]
HCMV recovery day 12 PI (HCMV strain AD 169; [7]): No HCMV was recovered
clinical efficacy (HCMV strain AD 169; [7]): did reduce the development of HCMV chorioretinal infection and disease; also recorded: effective in reducing the severity of HCMV-induced chorioretinal disease
lung appearance at sacrifice (HCMV strain AD 169; [7]): the lungs appeared normal
vitreitis severity (HCMV strain AD 169; [7]): moderate levels from day 4 through day 10 PI
eyes with stabilized chorioretinal disease (HCMV strain AD 169; by day 6-7 PI, DHPG 10 mg/kg/day): 70%
